From patent US4912215A, “Q-1047 Substances” (Yamanouchi Pharmaceutical Co., Ltd., priority 1989, dated 1990)

Key:
[1] = Superoxide anion scavenging activity (method of McCord and Fridovich, xanthine/xanthine oxidase, ferricytochrome C); format: biochemical; details: for concentration dependency of superoxide anion scavenging activity: FIG. 30, FIG. 31, FIG. 32; for SOD-like activity of the detected/isolated substance: TLC-detected substance in preparation examples, test not detailed; for IC50 / superoxide anion scavenging activity (in words): pH 7.8, 25° C.; for IC50: xanthine/xanthine oxidase, ferricytochrome C, read-out: concentration of the compound which showed one unit of SOD activity (50% reduction of increase in absorbance at 550 nm); for superoxide anion scavenging activity (in words): same reaction system
Procedure: The compounds according to the invention were tested for superoxide anion scavenging activity by the method of McCord and Fridovich [J. Biol. Chem., 244 (22), 6049-6055 1969) . Thus, xanthine oxidase was added to 5 ×10^-2 M potassium phosphate buffer (pH 7.8) containing 1 ×10^-4 M EDTA, 1×10^-5 M ferricytochrome C and 5×10^-5 M xanthine to give a reaction system in which the rate of increase in absorbance at 550 nm as determined at 25° C. amounted to 0.025 per minute.

[2] = Solubility; format: physicochemical; details: for Solubility in dioxane, toluene, benzene, chloroform: toluene (printed tolueno)
[3] = Basic, neutral or acidic nature; format: physicochemical
[4] = tested on: Puromycin aminonucleoside (PAN) nephrosis rats; experiment: Effect on puromycin nephritis (PAN nephrosis rats); format: in vivo, Male Sprague-Dawley rats; details: 10 mg/kg i.p. daily
Procedure: Male Sprague-Dawley rats (weighing 180-200 g) were used. Puromycin aminonucleoside (PAN) nephrosis rats were prepared by single intraperitoneal administration of 50 mg/kg of PAN. Throughout the experiment, the rats were fed in metabolic cages and received a solid diet for rats and tap water ad libitum. Urine samples were collected at timed intervals for 24 hours and assayed for protein content. The test drug, suspended in a 0.5% methylcellulose solution, was intraperitoneally administered daily. After the administration period, kidneys were excised, and thin sections were prepared therefrom in the conventional manner and examined microscopically.

[5] = Antioxidant activity (decolorization of DPPH radical); format: biochemical; details: for reduction of absorbance due to DPPH at 517 nm: 0.1 mM DPPH in ethanol, 30 minutes; for antioxidant activity of the detected/isolated substance: TLC-detected or isolated substance in preparation examples, test not detailed
Procedure: Generally, substances called antioxidants can decolorize 1,1-diphenyl-2-picrylhydrazyl (DPPH), which is a stable radical.
Thus, DPPH was dissolved in ethanol to a concentration of 0.1 mM, the test compound was admixed with the solution and, 30 minutes later, the absorbance was determined at 517 nm.

[6] = Acute toxicity in mice; details: mouse, in vivo, ip

Row | IC50 [1] | Solubility in dioxane, chloroform, ethyl acetate, acetonitrile [2] | Solubility in toluene, benzene, ethanol, methanol [2] | Solubility in water, hexane [2] | Basic, neutral or acidic [3] | SMILES | concentration dependency of superoxide anion scavenging activity [1] | SOD-like activity of the detected/isolated substance [1] | superoxide anion scavenging activity (in words) [1] | urinary protein level ([4]; PAN 50 mg/kg i.p. single, compared with PAN alone on 7th day) | kidney tissue examination (glomerular changes or abnormalities) ([4]; compared with PAN alone) | reduction of absorbance due to DPPH at 517 nm [5] | antioxidant activity of the detected/isolated substance [5] | Solubility in dioxane, toluene, benzene, chloroform [2] | Solubility in ethyl acetate, acetonitrile, acetone, ethanol, methanol [2] | LD50 [6]
1 | 35 µM | Soluble | sparingly | insoluble | Neutral | CC1=CC(C)C(OC2CCC(O)C(C)O2)C2=CC(=O)C=C(NC(=O)C(C)C(=O)C(C)C1)C2=O (stereo not drawn) [Q-1047-B] | dependent on the concentration | SOD-like activity |  |  |  |  |  |  |  | 
2 | 25 µM | Soluble | sparingly | insoluble | Neutral | CC1=CC(C)C(O)C2=CC(=O)C=C(NC(=O)C(C)C(=O)C(C)C1)C2=O (stereo not drawn) [Q-1047H-A-A] | concentration-dependent | SOD-like activity | have superoxide anion scavenging activity | almost no increase in urinary protein was observed | such changes or abnormalities were lesser in extent and lower in incidence |  |  |  |  | 
3 | 22 µM | Soluble | sparingly | insoluble | Neutral | CC1=CC(C)C(O)C2=CC(=O)C=C(NC(=O)C(C)C(=O)C(C)C1)C2=O (stereo not drawn) [Q-1047H-A-B] | concentration-dependent | SOD-like activity | have superoxide anion scavenging activity |  |  |  |  |  |  | 

The next lines start with the compound.

Row | SMILES | IC50 [1] | Solubility in dioxane, chloroform, ethyl acetate, acetonitrile [2] | Solubility in toluene, benzene, ethanol, methanol [2] | Solubility in water, hexane [2] | Basic, neutral or acidic [3] | concentration dependency of superoxide anion scavenging activity [1] | SOD-like activity of the detected/isolated substance [1] | superoxide anion scavenging activity (in words) [1] | urinary protein level ([4]; PAN 50 mg/kg i.p. single, compared with PAN alone on 7th day) | kidney tissue examination (glomerular changes or abnormalities) ([4]; compared with PAN alone) | reduction of absorbance due to DPPH at 517 nm [5] | antioxidant activity of the detected/isolated substance [5] | Solubility in dioxane, toluene, benzene, chloroform [2] | Solubility in ethyl acetate, acetonitrile, acetone, ethanol, methanol [2] | LD50 [6]
4 | CC1=CC(C)C(OC2CCC(O)C(C)O2)C2=CC(=O)C=C(NC(=O)C(C)C(=O)C(C)C1)C2=O (stereo not drawn) [Q-1047-A] | 5.6 µM | Soluble | sparingly | insoluble | Neutral | dependent on the concentration | SOD-like activity |  |  |  |  |  |  |  | 
5 | CC1=CC(C)C(O)c2cc(O)cc(c2O)NC(=O)C(C)C(=O)C(C)C1 (stereo not drawn) [Q-1047H-R-A] |  |  |  | insoluble | Neutral |  |  |  |  |  | reduced the absorbance due to DPPH | antioxidant activity | sparingly | Soluble | 
6 | CC1=CC(C)C(OC2CCC(O)C(C)O2)c2cc(O)cc(c2O)NC(=O)C(C)C(=O)C(C)C1 (stereo not drawn) [Q-1047R-A] |  |  |  | insoluble | Neutral |  |  |  |  |  | reduced the absorbance due to DPPH | antioxidant activity | sparingly | Soluble | > 500 mg/kg
